18 molecules from patent publication US4925865A, “Antimycotic agents” (Bayer Aktiengesellschaft, priority 1987, dated 1990) can be followed below.

What is called MIC is the lowest concentration that inhibits growth of the organism. Higher therefore signals a less susceptible organism.

Values after ≈ are worked out from the molar mass of the structure shown.

The test system of one assay is Trichophyton mentagr. Nature of the assay: Antimycotic in vitro activity, serial dilution test, Trichophyton mentagr. In kind it is cell-based, Trichophyton mentagrophytes. The following applies: Sabouraud's test medium, 28-37° C., 96 hours. As to the method: (§1) The in vitro tests were carried out in the serial dilution test using inocula of microorganisms of approximately 5×10^3 to 10^4 microorganisms/ml of substrate. The nutrient medium used was (a) for dermatophytes and Blastomycetes: Sabouraud's test medium (b) for yeasts: meat extract/dextrose broth. The incubation temperature was 28° C. to 37° C., and the incubation period was 24 to 96 hours with yeasts and 96 hours with dermatophytes and Blastomycetes.

The test system of a further assay is Microsporum canis. As to the kind of experiment: Antimycotic in vitro activity, serial dilution test, Microsporum canis. In kind it is cell-based. Conditions: Sabouraud's test medium, 28-37° C., 96 hours. Here is the method: as §1
The next assay has as its system Candida albicans. As to the kind of experiment: Antimycotic in vitro activity, serial dilution test, Candida albicans. It counts as cell-based. Conditions: meat extract/dextrose broth, 28-37° C., 24 to 96 hours. As to the method:
as §1

A further assay has as its system Torulopsis glabrata. As to the kind of experiment: Antimycotic in vitro activity, serial dilution test, Torulopsis glabrata. The following applies: Nakaseomyces glabratus; 28-37° C., 24 to 96 hours. It counts as cell-based. Here is the method:
as §1

For a further assay, the system named is Aspergillus fumigatus. As to the kind of experiment: Antimycotic in vitro activity, serial dilution test, Aspergillus fumigatus. It counts as cell-based. The following applies: 28-37° C. Here is the method:
as §1

Assay [1] concerns dermatophytes, Blastomycetes and yeasts. Nature of the assay: Antimycotic in vitro activity, serial dilution test, overall comparison. In kind it is cell-based. Here is the method: as §1

For the molecule `OC(CCc1ccc(Cl)cc1Cl)(Cn1cncn1)C1(Cl)CC1` (stereo not shown) [Compound I-22], the minimal inhibitory concentration (MIC) in the assay on Trichophyton mentagr. was under 1 µg/mL; in the assay with Microsporum canis, 4 µg/mL (≈ 11.1 µM); in the assay on Candida albicans, 2 µg/mL (≈ 5.55 µM); against Torulopsis glabrata, 2 µg/mL (≈ 5.55 µM); against Aspergillus fumigatus it was under 1 µg/mL. The “antimycotic activity compared with compounds (A) and (B)” value in assay [1] was “better antimycotic activity than the compounds (A) and (B)”.

Consider `OC(CCc1ccc(F)cc1)(Cn1cncn1)C1(Cl)CC1` (stereo not shown) [Compound I-12], for which the minimal inhibitory concentration (MIC) against Trichophyton mentagr. is under 1 µg/mL; against Microsporum canis, 4 µg/mL (≈ 12.9 µM); with Candida albicans, 8 µg/mL (≈ 25.8 µM); with Torulopsis glabrata, 32 µg/mL (≈ 103 µM); against Aspergillus fumigatus, under 1 µg/mL. Moreover, the “antimycotic activity compared with compounds (A) and (B)” value in assay [1] was “better antimycotic activity than the compounds (A) and (B)”.

Regarding `OC(CCc1ccc(Cl)cc1)(Cn1cncn1)C1(SCc2ccccc2)CC1` (stereo not shown) [Compound I-10], the minimal inhibitory concentration (MIC) in the assay with Trichophyton mentagr. was under 1 µg/mL; in the assay with Microsporum canis, 8 µg/mL (≈ 19.3 µM); with Candida albicans, 2 µg/mL (≈ 4.83 µM); in the assay with Torulopsis glabrata, 4 µg/mL (≈ 9.66 µM); with Aspergillus fumigatus, 64 µg/mL (≈ 155 µM). For the same molecule, in assay [1], the “antimycotic activity compared with compounds (A) and (B)” value was “better antimycotic activity than the compounds (A) and (B)”.

Turning to `OC(C=Cc1ccccc1Cl)(Cn1cncn1)C1(Cl)CC1` (stereo not shown) [Compound I-31], the MIC in the assay with Trichophyton mentagr. was under 1 µg/mL; in the assay on Microsporum canis, 4 µg/mL (≈ 12.3 µM); in the assay with Candida albicans it was 8 µg/mL (≈ 24.7 µM); in the assay on Torulopsis glabrata, 8 µg/mL (≈ 24.7 µM); against Aspergillus fumigatus it was 2 µg/mL (≈ 6.17 µM). In addition, the “antimycotic activity compared with compounds (A) and (B)” value in assay [1] was “better antimycotic activity than the compounds (A) and (B)”.

With `CCSC1(C(O)(C=Cc2ccc(Cl)cc2Cl)Cn2cncn2)CC1` (stereo not shown) [Compound I-16], the minimum inhibitory concentration (MIC) against Trichophyton mentagr. is under 1 µg/mL; with Microsporum canis, under 1 µg/mL; against Candida albicans, 8 µg/mL (≈ 20.8 µM); against Torulopsis glabrata, under 1 µg/mL; with Aspergillus fumigatus, 4 µg/mL (≈ 10.4 µM). Also, the “antimycotic activity compared with compounds (A) and (B)” value in assay [1] is “better antimycotic activity than the compounds (A) and (B)”.

Consider `OC(C=Cc1ccccc1)(Cn1cncn1)C1(Cl)CC1` (stereo not shown) [Compound I-32], for which the MIC with Trichophyton mentagr. was under 1 µg/mL; in the assay on Microsporum canis, 4 µg/mL (≈ 13.8 µM); against Candida albicans, 4 µg/mL (≈ 13.8 µM); against Torulopsis glabrata it was 8 µg/mL (≈ 27.6 µM); in the assay on Aspergillus fumigatus, 2 µg/mL (≈ 6.9 µM). Also, in assay [1], the “antimycotic activity compared with compounds (A) and (B)” value is “better antimycotic activity than the compounds (A) and (B)”.

Consider `CCCSC1(C(O)(/C=C/c2ccc(Cl)cc2Cl)Cn2cncn2)CC1` (stereo not drawn) [Compound I-3, trans-4-(2,4-dichlorophenyl)-2-(1-propylmercaptocyclopropyl)1-(1,2,4-triazol-1-yl)-but-3-en-2-ol], for which the minimum inhibitory concentration (MIC) with Trichophyton mentagr. came out at 8 µg/mL (≈ 20.1 µM); in the assay with Candida albicans, 4 µg/mL (≈ 10 µM); with Torulopsis glabrata it was 4 µg/mL (≈ 10 µM); in the assay with Aspergillus fumigatus it was 16 µg/mL (≈ 40.2 µM). Moreover, the “antimycotic activity compared with compounds (A) and (B)” value in assay [1] is “better antimycotic activity than the compounds (A) and (B)”.

In the case of `CC(C)SC1(C(O)(CCc2ccc(Cl)cc2)Cn2cncn2)CC1` (stereo not shown) [Compound I-8], the minimum inhibitory concentration (MIC) was 2 µg/mL (≈ 5.47 µM) in the assay on Trichophyton mentagr., 8 µg/mL (≈ 21.9 µM) against Candida albicans, 32 µg/mL (≈ 87.4 µM) with Torulopsis glabrata and 4 µg/mL (≈ 10.9 µM) in the assay with Aspergillus fumigatus. In assay [1], the “antimycotic activity compared with compounds (A) and (B)” value is “better antimycotic activity than the compounds (A) and (B)”.

Take `OC(CCc1ccccc1Cl)(Cn1cncn1)C1(Cl)CC1` (stereo not shown) [Compound I-19]: the minimal inhibitory concentration (MIC) was under 1 µg/mL in the assay with Trichophyton mentagr.; 2 µg/mL (≈ 6.13 µM) with Microsporum canis; 4 µg/mL (≈ 12.3 µM) against Candida albicans; 16 µg/mL (≈ 49 µM) with Torulopsis glabrata; 2 µg/mL (≈ 6.13 µM) with Aspergillus fumigatus. In addition, in assay [1], the “antimycotic activity compared with compounds (A) and (B)” value was “better antimycotic activity than the compounds (A) and (B)”.

For the molecule `OC(CCc1ccccc1)(Cn1cncn1)C1(Cl)CC1` (stereo not shown) [Compound I-23], the MIC in the assay with Trichophyton mentagr. is under 1 µg/mL; with Microsporum canis, 2 µg/mL (≈ 6.85 µM); with Candida albicans it was 4 µg/mL (≈ 13.7 µM); in the assay on Torulopsis glabrata, 8 µg/mL (≈ 27.4 µM); against Aspergillus fumigatus it was under 1 µg/mL. Further, in assay [1], the “antimycotic activity compared with compounds (A) and (B)” value was “better antimycotic activity than the compounds (A) and (B)”.

As to `CC(C)(CCC(O)(Cn1cncn1)C1(Cl)CC1)Cc1ccc(Cl)cc1` (stereo not shown) [Compound I-17], the MIC with Trichophyton mentagr. is 2 µg/mL (≈ 5.23 µM); against Candida albicans it was under 1 µg/mL; in the assay with Torulopsis glabrata, 2 µg/mL (≈ 5.23 µM); against Aspergillus fumigatus, 4 µg/mL (≈ 10.5 µM). Besides, the “antimycotic activity compared with compounds (A) and (B)” value in assay [1] was “better antimycotic activity than the compounds (A) and (B)”.

Consider `OC(CCc1ccc(-c2ccccc2)cc1)(Cn1cncn1)C1(Cl)CC1` (stereo not shown) [Compound I-25], for which the minimal inhibitory concentration (MIC) with Trichophyton mentagr. is under 1 µg/mL; against Microsporum canis, 2 µg/mL (≈ 5.44 µM); against Candida albicans, under 1 µg/mL; in the assay on Torulopsis glabrata it was 2 µg/mL (≈ 5.44 µM); with Aspergillus fumigatus, under 1 µg/mL. The “antimycotic activity compared with compounds (A) and (B)” value in assay [1] was “better antimycotic activity than the compounds (A) and (B)”.

For the molecule `Cc1ccc(CCC(O)(Cn2cncn2)C2(Cl)CC2)cc1` (stereo not shown) [Compound I-20], the MIC with Trichophyton mentagr. was under 1 µg/mL; against Microsporum canis, 2 µg/mL (≈ 6.54 µM); in the assay with Candida albicans it was 4 µg/mL (≈ 13.1 µM); with Torulopsis glabrata, 2 µg/mL (≈ 6.54 µM); with Aspergillus fumigatus it was under 1 µg/mL. In addition, the “antimycotic activity compared with compounds (A) and (B)” value in assay [1] was “better antimycotic activity than the compounds (A) and (B)”.

Take `OC(C=CC1CCCCC1)(Cn1cncn1)C1(Cl)CC1` (stereo not shown) [Compound I-39]: the minimal inhibitory concentration (MIC) with Trichophyton mentagr. was 2 µg/mL (≈ 6.76 µM); in the assay on Candida albicans it was 16 µg/mL (≈ 54.1 µM); with Torulopsis glabrata, 16 µg/mL (≈ 54.1 µM); in the assay with Aspergillus fumigatus, 2 µg/mL (≈ 6.76 µM). For the same molecule, the “antimycotic activity compared with compounds (A) and (B)” value in assay [1] is “better antimycotic activity than the compounds (A) and (B)”.

Turning to `Cc1ccc(C=CC(O)(Cn2cncn2)C2(Cl)CC2)cc1` (stereo not shown) [Compound I-28], the minimal inhibitory concentration (MIC) in the assay with Trichophyton mentagr., with Microsporum canis, in the assay with Candida albicans, against Torulopsis glabrata and against Aspergillus fumigatus was under 1 µg/mL throughout. The “antimycotic activity compared with compounds (A) and (B)” value in assay [1] was “better antimycotic activity than the compounds (A) and (B)”.

For the molecule `CCSC1(C(O)(CCc2ccc(Cl)cc2Cl)Cn2cncn2)CC1` (stereo not shown) [Compound I-9], the minimal inhibitory concentration (MIC) in the assay with Trichophyton mentagr. amounted to 8 µg/mL (≈ 20.7 µM); with Candida albicans, 4 µg/mL (≈ 10.4 µM); in the assay with Torulopsis glabrata, 16 µg/mL (≈ 41.4 µM); against Aspergillus fumigatus, 16 µg/mL (≈ 41.4 µM). Besides, the “antimycotic activity compared with compounds (A) and (B)” value in assay [1] is “better antimycotic activity than the compounds (A) and (B)”.

With `CC(C)(C)C=CC(O)(Cn1cncn1)C1(Cl)CC1` (stereo not shown) [Compound I-38], the MIC was under 1 µg/mL against Trichophyton mentagr.; 4 µg/mL (≈ 14.8 µM) in the assay with Microsporum canis; 4 µg/mL (≈ 14.8 µM) in the assay with Candida albicans; 4 µg/mL (≈ 14.8 µM) with Torulopsis glabrata; 8 µg/mL (≈ 29.7 µM) against Aspergillus fumigatus. Further, the “antimycotic activity compared with compounds (A) and (B)” value in assay [1] is “better antimycotic activity than the compounds (A) and (B)”.

In the case of `OC(CCc1ccc(OC(F)(F)F)cc1)(Cn1cncn1)C1(Cl)CC1` (stereo not shown) [Compound I-24], the minimal inhibitory concentration (MIC) in the assay on Trichophyton mentagr. is under 1 µg/mL; with Microsporum canis, 4 µg/mL (≈ 10.6 µM); against Candida albicans, 16 µg/mL (≈ 42.6 µM); with Torulopsis glabrata, 4 µg/mL (≈ 10.6 µM); with Aspergillus fumigatus, under 1 µg/mL. In addition, the “antimycotic activity compared with compounds (A) and (B)” value in assay [1] is “better antimycotic activity than the compounds (A) and (B)”.
